From ChEMBL document CHEMBL2074346, “Mouse breast cancer resistance protein (Bcrp1/Abcg2) mediates etoposide resistance and transport, but etoposide oral availability is limited primarily by P-glycoprotein” (Cancer Res, 2003) come the findings set out here.

In one data set the target is T1, Broad substrate specificity ATP-binding cassette transporter ABCG2 (Mus musculus, UniProt Q7TMS5).
T1 sequence (Q7TMS5 whole entry): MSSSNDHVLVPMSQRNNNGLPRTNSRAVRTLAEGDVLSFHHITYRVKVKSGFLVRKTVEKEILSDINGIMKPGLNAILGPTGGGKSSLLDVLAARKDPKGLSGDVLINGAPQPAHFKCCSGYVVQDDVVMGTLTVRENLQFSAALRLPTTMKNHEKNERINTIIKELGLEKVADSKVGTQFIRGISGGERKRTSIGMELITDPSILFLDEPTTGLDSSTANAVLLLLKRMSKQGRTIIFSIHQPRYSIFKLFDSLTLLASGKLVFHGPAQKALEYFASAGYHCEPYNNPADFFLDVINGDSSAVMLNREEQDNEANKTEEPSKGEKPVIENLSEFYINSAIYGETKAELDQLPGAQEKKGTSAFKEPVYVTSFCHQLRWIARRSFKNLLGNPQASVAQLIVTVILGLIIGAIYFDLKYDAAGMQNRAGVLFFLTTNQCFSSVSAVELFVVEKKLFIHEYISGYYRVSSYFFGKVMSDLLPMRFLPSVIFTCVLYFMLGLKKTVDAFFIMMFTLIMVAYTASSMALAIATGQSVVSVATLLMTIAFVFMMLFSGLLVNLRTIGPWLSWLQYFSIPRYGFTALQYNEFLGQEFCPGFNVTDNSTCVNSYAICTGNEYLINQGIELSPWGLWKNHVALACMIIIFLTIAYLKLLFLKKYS
The experiment in a line: TP_TRANSPORTER: transepithelial transport (basal to apical) in BCRP-expressing MDCKII cells. The data set is classed as functional, cell-based. The note with it: dog, mdck-ii.
Regarding `COc1cc([C@@H]2c3cc4c(cc3[C@@H](O[C@@H]3O[C@@H]5CO[C@@H](C)O[C@H]5[C@H](O)[C@H]3O)[C@H]3COC(=O)[C@H]23)OCO4)cc(OC)c1O` [ETOPOSIDE], the Activity result is “substrate []”.

For another data set, the target named is T1, Broad substrate specificity ATP-binding cassette transporter ABCG2. The experiment in a line: TP_TRANSPORTER: drug resistance in BCRP-expressing MEF3.8 cells. The data set is classed as functional, cell-based.
Settings: not given
On to `C(=N\NC1=NCCN1)/c1c2ccccc2c(/C=N/NC2=NCCN2)c2ccccc12` [BISANTRENE], for which the Activity result is “substrate []”.

`COc1cccc2c1C(=O)c1c(O)c3c(c(O)c1C2=O)C[C@@](O)(C(=O)CO)C[C@@H]3O[C@H]1C[C@H](N)[C@H](O)[C@H](C)O1` [DOXORUBICIN]: the Activity entry is “substrate []”.

Regarding `COc1cc([C@@H]2c3cc4c(cc3[C@@H](O[C@@H]3O[C@@H]5CO[C@@H](C)O[C@H]5[C@H](O)[C@H]3O)[C@H]3COC(=O)[C@H]23)OCO4)cc(OC)c1O` [ETOPOSIDE], the Activity entry was “substrate []”.

`O=C1c2c(O)ccc(O)c2C(=O)c2c(NCCNCCO)ccc(NCCNCCO)c21` [MITOXANTRONE]: the Activity entry was “substrate []”.

In the case of `COc1cc([C@@H]2c3cc4c(cc3[C@@H](O[C@@H]3O[C@@H]5CO[C@@H](c6cccs6)O[C@H]5[C@H](O)[C@H]3O)[C@H]3COC(=O)[C@H]23)OCO4)cc(OC)c1O` [TENIPOSIDE], the Activity result is “substrate []”.

For the compound `CC[C@@]1(O)C(=O)OCc2c1cc1n(c2=O)Cc2cc3c(CN(C)C)c(O)ccc3nc2-1` [TOPOTECAN], the Activity result is “substrate []”.

Regarding `CC[C@]1(O)C[C@H]2CN(CCc3c([nH]c4ccccc34)[C@@](C(=O)OC)(c3cc4c(cc3OC)N(C=O)[C@H]3[C@@](O)(C(=O)OC)[C@H](OC(C)=O)[C@]5(CC)C=CCN6CC[C@]43[C@@H]65)C2)C1` [VINCRISTINE], the Activity result is “substrate []”.
